{"source": "paper PMC7202735", "about": "(Journal of medicinal chemistry, 2018)", "key": {"CB1": {"system": "CB1", "conditions": "cited from earlier work"}, "MG63 cells": {"system": "MG63 cells", "assay": "Wound healing scratch assay, MG63", "type": "cell-based, human", "conditions": "MG63 cell line, Figure 2d"}, "endothelial HUVEC cells": {"system": "endothelial HUVEC cells", "assay": "Angiogenesis assay: endothelial tube formation on matrigel", "type": "cell-based, human", "conditions": "0.5 μM and 1 μM, 5 hours"}, "143B cells": {"system": "143B cells", "assay": "Wound healing scratch assay, 143B", "type": "cell-based, human", "conditions": "143B cell line, with rimonabant, Supplementary Figure S4"}, "143B": {"system": "143B", "assay": "Cell cycle analysis by propidium iodide staining, 143B", "type": "cell-based, human", "conditions": "treated 24 hours"}, "[1]": {"target": "T1, Fatty acid amide hydrolase (FAAH) (Sus scrofa, UniProt Q9TUI8)", "T1 sequence (Q9TUI8 1-579)": "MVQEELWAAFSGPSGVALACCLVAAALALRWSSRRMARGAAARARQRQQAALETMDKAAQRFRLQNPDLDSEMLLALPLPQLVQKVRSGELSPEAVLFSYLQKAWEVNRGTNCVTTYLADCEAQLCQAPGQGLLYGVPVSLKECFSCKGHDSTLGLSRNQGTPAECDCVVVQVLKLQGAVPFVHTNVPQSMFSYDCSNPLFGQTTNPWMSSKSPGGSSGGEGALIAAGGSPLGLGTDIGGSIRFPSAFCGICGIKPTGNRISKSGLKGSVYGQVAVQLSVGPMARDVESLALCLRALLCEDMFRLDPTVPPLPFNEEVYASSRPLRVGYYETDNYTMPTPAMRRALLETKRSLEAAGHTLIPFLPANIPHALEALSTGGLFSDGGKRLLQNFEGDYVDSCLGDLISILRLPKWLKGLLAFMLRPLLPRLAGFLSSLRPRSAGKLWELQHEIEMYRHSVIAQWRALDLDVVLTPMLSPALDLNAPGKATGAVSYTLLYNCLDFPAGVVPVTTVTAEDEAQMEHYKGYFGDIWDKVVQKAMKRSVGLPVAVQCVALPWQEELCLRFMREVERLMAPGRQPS", "conditions": "cited from earlier work"}, "HOS, 143B and MG63 cells": {"system": "HOS, 143B and MG63 cells", "type": "cell-based, human", "conditions": "for induction of apoptosis as compared to no treatment control: all three cell lines, 12.5 μM; for apoptotic activity as compared to control: antagonist alone, supplementary tables 2–4"}}, "data": [{"smiles": "CCCCCC=CCC=CCC=CCC=CCCCC(=O)NC(C)CO", "note": "(single isomer, unassigned) [R isomer]", "values": [{"measurement": "CB1 binding, fold higher as compared to AEA", "setting": "CB1", "value": 4, "unit": "fold"}]}, {"smiles": "CCCCCC=CCC=CCC=CCC=CCCCC(=O)NC(C)CO", "note": "(single isomer, unassigned) [S isomers]", "values": [{"measurement": "CB1 binding, fold lower as compared to AEA", "setting": "CB1", "value": 2, "unit": "fold"}]}, {"smiles": "CC/C=C\\C/C=C\\C/C=C\\CC1OC1C/C=C\\C/C=C\\CCC(=O)NC1CC1", "note": "(stereo not drawn) [10,11-EDP-CA, (4Z,7Z)-N-cyclopropyl-9-(3-((2Z,5Z,8Z)-undeca-2,5,8-trien-1-yl)oxiran-2-yl)nona-4,7-dienamide]", "values": [{"measurement": "restriction in wound healing as compared to the control", "setting": "MG63 cells", "value": "comparable to 10,11-EDP-EA"}, {"measurement": "tube formation as compared to the vehicle control", "setting": "endothelial HUVEC cells", "value": "Restriction of tube formation"}]}, {"smiles": "CC/C=C\\C/C=C\\C/C=C\\CC1OC1C/C=C\\C/C=C\\CCC(=O)NCCO", "note": "(stereo not drawn) [10,11-EDP-EA, (4Z,7Z)-N-(2-hydroxyethyl)-9-(3-((2Z,5Z,8Z)-undeca-2,5,8-trien-1-yl)oxiran-2-yl)nona-4,7-dienamide]", "values": [{"measurement": "reduction of cell migration in presence of CB1 receptor antagonist", "setting": "143B cells", "value": "completely abolished"}, {"measurement": "tube formation as compared to the vehicle control", "setting": "endothelial HUVEC cells", "value": "Restriction of tube formation"}]}, {"smiles": "CC/C=C\\C/C=C\\C/C=C\\CC1OC1C/C=C\\C/C=C\\CCC(=O)NC(C)CO", "note": "(stereo not drawn) [10,11-EDP-IA, (4Z,7Z)-N-(1-hydroxypropan-2-yl)-9-(3-((2Z,5Z,8Z)-undeca-2,5,8-trien-1-yl)oxiran-2-yl)nona-4,7-dienamide]", "values": [{"measurement": "restriction in wound healing as compared to the control", "setting": "MG63 cells", "value": "slightly poorer than the control"}, {"measurement": "tube formation as compared to the vehicle control", "setting": "endothelial HUVEC cells", "value": "Restriction of tube formation"}]}, {"smiles": "CC/C=C\\C/C=C\\C/C=C\\CC1OC1C/C=C\\C/C=C\\CCC(=O)NCCCO", "note": "(stereo not drawn) [10,11-EDP-NA, (4Z,7Z)-N-(3-hydroxypropyl)-9-(3-((2Z,5Z,8Z)-undeca-2,5,8-trien-1-yl)oxiran-2-yl)nona-4,7-dienamide]", "values": [{"measurement": "percentage of cells in S", "setting": "143B", "value": "slight suppression"}, {"measurement": "restriction in wound healing as compared to the control", "setting": "MG63 cells", "value": "slightly poorer than the control"}, {"measurement": "tube formation as compared to the vehicle control", "setting": "endothelial HUVEC cells", "value": "Restriction of tube formation"}]}, {"smiles": "CCC1OC1C/C=C\\C/C=C\\C/C=C\\C/C=C\\C/C=C\\CCC(=O)NCCO", "note": "(stereo not drawn) [19,20-EDP-EA]", "values": [{"measurement": "rate of hydrolysis", "setting": "[1]", "value": 150, "unit": "pmol min−1 mg protein−1"}]}, {"smiles": "CCCCC/C=C\\C/C=C\\C/C=C\\C/C=C\\CCCC(=O)O", "note": "[AA, arachidonic acid]", "values": [{"measurement": "induction of apoptosis as compared to no treatment control", "setting": "HOS, 143B and MG63 cells", "value": "no induction of apoptosis"}]}, {"smiles": "CCCCC/C=C\\C/C=C\\C/C=C\\C/C=C\\CCCC(=O)NCCO", "note": "[AEA, arachidonoyl ethanolamide]", "values": [{"measurement": "induction of apoptosis as compared to no treatment control", "setting": "HOS, 143B and MG63 cells", "value": "no induction of apoptosis"}]}, {"smiles": "COc1ccc(C(=O)c2c(C)n(CCN3CCOCC3)c3cc(I)ccc23)cc1", "note": "[AM 630]", "values": [{"measurement": "apoptotic activity as compared to control", "setting": "HOS, 143B and MG63 cells", "value": "very limited apoptotic activity"}]}, {"smiles": "CC/C=C\\C/C=C\\C/C=C\\C/C=C\\C/C=C\\C/C=C\\CCC(=O)O", "note": "[DHA, docosahexaenoic acid]", "values": [{"measurement": "induction of apoptosis as compared to no treatment control", "setting": "HOS, 143B and MG63 cells", "value": "no induction of apoptosis"}]}, {"smiles": "CC/C=C\\C/C=C\\C/C=C\\C/C=C\\C/C=C\\C/C=C\\CCC(=O)NCCO", "note": "[DHEA, docosahexaenoylethanolamide]", "values": [{"measurement": "induction of apoptosis as compared to no treatment control", "setting": "HOS, 143B and MG63 cells", "value": "no induction of apoptosis"}]}, {"smiles": "Cc1c(C(=O)NN2CCCCC2)nn(-c2ccc(Cl)cc2Cl)c1-c1ccc(Cl)cc1", "note": "[rimonabant]", "values": [{"measurement": "apoptotic activity as compared to control", "setting": "HOS, 143B and MG63 cells", "value": "very limited apoptotic activity"}]}]}
